Assay results published in PMC12974487, “Inhibition of FicD-mediated AMPylation and deAMPylation by isoprenoid diphosphates” (Proceedings of the National Academy of Sciences of the …, 2026).
Where a chain is given by its changes, count along the chain named.

Assays:
[1] = biological target: T1, FicD^WT (Homo sapiens, UniProt Q9BVA6); assay: In vitro deAMPylation of Δ26hBiP^T229A-AMP by FicD^WT (Western blot); type: biochemical; details: 100 μM metabolite, 5 mM MgCl2
T1 construct: soluble ER luminal domain (residues 105 to 458) of wild-type human FicD; 6xHis-Sumo (N, cleaved yes); made in house; host or cells: Rosetta(DE3) E. coli
T1 sequence (Q9BVA6 105-458): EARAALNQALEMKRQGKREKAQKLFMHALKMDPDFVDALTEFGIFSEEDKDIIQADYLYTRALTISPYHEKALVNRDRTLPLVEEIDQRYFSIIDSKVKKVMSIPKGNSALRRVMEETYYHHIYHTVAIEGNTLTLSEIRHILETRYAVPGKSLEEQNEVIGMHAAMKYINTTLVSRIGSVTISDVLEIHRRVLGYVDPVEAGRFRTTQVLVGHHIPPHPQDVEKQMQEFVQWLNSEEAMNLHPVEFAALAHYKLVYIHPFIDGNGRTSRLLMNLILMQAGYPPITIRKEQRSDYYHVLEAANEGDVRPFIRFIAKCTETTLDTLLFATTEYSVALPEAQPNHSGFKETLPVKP
Text: (§1) We next sought to assess the effects of FPP, GPP, and isoprenoid analogues on FicD activity. To accurately judge the effects of small molecules on FicD AMPylation activity, we used the ATPase defective BiP^T229A mutant as substrate ([22], [49], [50]). Loss of ATP hydrolysis by the BiP mutant ensures: 1. conformational homogeneity of the BiP protein substrate; 2. lack of BiP competition for the ATP substrate; and 3. no production of ADP, a competitive inhibitor for ATP. In addition, we deleted the first 25 amino acids of BiP for ease with its purification and solubility. […]
For deAMPylation assays with FicD and BiP, Δ26hBiPT229A was in-vitro AMPylated by […]
5mM MgCl2, 500uM ATP, 0.5% CHAPS, 1mM DTT. After one hour of incubation at 30-37C, the entire reaction mix was transferred into an Amicon 0.5mL 50kDa MWCO concentrator (cat no.
7.4/150mM NaCl/10% glycerol/1mM DTT was added to the concentrated AMPylation reaction and then spun down again at 14,000 x g at 4C for 5-10 minutes. This step was repeated four times to buffer exchange AMPylated Δ26hBiPT229A.
Δ104hFicDWT and Δ26hBiPT229A-AMP were combined at a ratio of 1:80 in buffer containing 25mM HEPES pH 7.4, 100mM KCl, 5mM MgCl2, 1mM DTT and the indicated small molecule where applicable. Reactions were incubated at 37C for 1 hour and stopped by the addition EDTA. 5X SDS sample buffer (250mM Tris pH 6.8, 10% Lithium dodecyl sulfate, 50% glycerol, 50mM DTT, 0.05% Bromophenol blue) was then added to the reactions and reactions were heated for 5 minutes at […]

[2] = biological target: T1, FicD^WT; assay: In vitro AMPylation of Δ26hBiP^T229A by FicD^WT (Western blot); type: biochemical; details: 100 μM metabolite, 500 μM ATP, 5 mM MgCl2
Text: as §1
For AMPylation assays with FicD and BiP, Δ104FicDWT and Δ26hBiPT229A were combined at a ratio
of 1:80 in buffer containing 25mM HEPES pH 7.4, 100mM KCl, 5mM MgCl2, 500μM ATP, 1mM
DTT, and small molecule where indicated. Assays with Δ104FicDWT were incubated for 1 hour.
the amount of FicD as in reactions containing FicDWT and were incubated at 37C for 4.5 hours. […]

[3] = biological target: T2, FicD^L258D (Homo sapiens, UniProt Q9BVA6, L258D); assay: Differential scanning fluorimetry (DSF) thermal shift with FicD^L258D; type: binding
T2 construct: soluble ER luminal domain (residues 105 to 458) of wild-type human FicD and three mutants; 6xHis-Sumo (N, cleaved yes); made in house; host or cells: Rosetta(DE3) E. coli
T2 sequence (Q9BVA6 105-458 L258D): T1 sequence (Q9BVA6 105-458) with L154D
Method: Differential Scanning Fluorimetry
Thermal shift assays were performed in Biorad CfX384 Touch Real-Time PCR Detection System […]
Reactions contained 50mM HEPES pH 7.4, 200mM NaCl, 200mM KCl, 200uM DTT, 5X Invitrogen Sypro Orange (Cat no. S6650), 8-9μM protein, and indicated nucleotide, cofactor, or small molecule in a total volume of 20uL. For every experiment ‘no protein’ controls were also included with the same reaction conditions. All reactions were performed in technical triplicates. Sealed plates containing reaction mixes were centrifuged for 1-5 min at 1000 RPM prior to temperature scanning (FRET channel), which was performed from 6°C […]
DSF data was analyzed with traditional methods automated in a Python package (https://pypi.org/project/instawell/). Briefly, for each temperature, the RFU values of technical triplicates are averaged. For each timepoint, the background fluorescence was subtracted using the RFU values of the ‘no protein’ control. […]
calculated. The melting temperature (Tm) is defined as the first derivative peak value. Data

[4] = biological target: T1, FicD^WT; assay: MIDAS equilibrium dialysis/mass spectrometry metabolite screen, FicD^WT; type: binding; details: cutoff Q < 0.05 and |Log2 corrected fold change| > 2, metabolites 5 µM
[5] = biological target: T3, FicD^E234G (Homo sapiens, UniProt Q9BVA6, E234G); assay: MIDAS metabolite screen, FicD^E234G; type: binding; details: cutoff Q < 0.05 and |Log2 corrected fold change| > 2, metabolites 5 µM
T3 construct: soluble ER luminal domain (residues 105 to 458) of wild-type human FicD and three mutants; 6xHis-Sumo (N, cleaved yes); made in house; host or cells: Rosetta(DE3) E. coli
T3 sequence (Q9BVA6 105-458 E234G): T1 sequence (Q9BVA6 105-458) with E130G

[6] = biological target: T2, FicD^L258D; assay: MIDAS metabolite screen, FicD^L258D; type: binding; details: cutoff Q < 0.05 and |Log2 corrected fold change| > 2, metabolites 5 µM
Text: To identify small-molecule metabolite interactions with FicD, we applied an unbiased high-throughput screening approach known as MIDAS ([44]). Given the high concentrations of protein required for MIDAS screening, we purified the soluble ER luminal domain (residues 105 to 458) of wild-type human FicD and three mutants FicD^E234G, FicD^L258D, and FicD^H363A for screening (Fig. 1A). These mutants were selected based on their well-established biochemical features ([23], [24], [31]). All three are predicted to enhance detection of protein–metabolite interactions (PMIs) relative to FicD^WT through increased affinity for nucleotide substrates (FicD^E234G), improved solubility (FicD^L258D), and loss of catalytic turnover (FicD^H363A) (Fig. 1A). To decrease the potential for nonspecific small-molecule binding, we ensured the purity of our FicD proteins (SI Appendix, Fig. S1 A and B). As reported by other investigators ([24], [31]), we observe an increase in elution volume of the FicD^L258D mutant, consistent with its monomerization (SI Appendix, Fig. S1C).
Out of the 602 naturally occurring human metabolites in the MIDAS library, we applied a significance cutoff (q value < 0.05) to identify 12 PMIs with a Log2 (corrected fold change) of >2 and two PMIs with a Log2 (corrected fold change) <-2 in the FicD^WT screen (Fig. 1B and SI Appendix, Table S2). Hits were additionally triaged based on detection of multiple adducts of the metabolite in a single dataset (FPP and […] in Fig. 1B) and identification of the same metabolites across three or more of the FicD construct screens (Fig. 1C). Three chemical classes passed this initial triage: adenosine nucleotides, isoprenoid diphosphates, and thyroid hormone intermediates (Fig. 1 B and C and SI Appendix, Tables S2–S5).
22°C. Induced cultures were then harvested by centrifugation at 8000G for 15 minutes at 4°C and […]
Bacterial pellets were resuspended in 30-50mL of 50mM Tris pH 7.4/150mM NaCl/10% glycerol with one Roche cOmplete EDTA-Free Protease inhibitor cocktail tablet (cat no. COEDTAF-RO).
Triton-X100 to a final concentration of 0.2%, Chicken-egg lysozyme to a final concentration of 0.4ug/mL, and 2-5uL of Millipore Benzonase Nuclease (cat no. 70664) were added to bacterial suspension prior to sonication at 40-50% amplitude for 1-3 minutes in pulses of 5 seconds on and 30 seconds off on ice with a Sonics VCX 750 Ultrasonicator. Bacterial lysate was then clarified by centrifugation at 30,000 x g for 30 minutes at 4°C.
Clarified lysate was rotated with Qiagen NiNTA agarose beads (cat no. 30210) for 1-2 hours at 4°C. The beads were then transferred to a 15mL conical vial, resuspended in 10-15mL wash buffer (50mM Tris pH 7.4/150mM NaCl/10% glycerol/0.2% Triton-X 100/10mM imidazole), and spun down at 1000G for 1 minute at 4°C, after which the supernatant was aspirated from the beads. This washing step was repeated 2-4 times to rinse bacterial lysate from the beads prior to on-column washing. The beads were then transferred to BioRad Econopac 20mL bed volume column (cat no.
7321010) and washed with 10-15mL of wash buffer (repeated at least three times), 10mL of ATP wash (50mM Tris pH 7.4/300mM KCl/10mM MgCl2/500uM ATP, repeated once), and finally with 10-15mL wash buffer without Triton-X 100 (repeated at least three times). Protein was eluted in 500μL-1mL elution buffer (50mM Tris pH 7.5/150mM NaCl/10% glycerol/0.5% CHAPS). […]

Row | inhibition of deAMPylation activity of FicD^WT [1] | inhibition of AMPylation of Δ26hBiP^T229A by FicD^WT [2] | binding to FicD^L258D by DSF ([3]; presence of 5 mM MgCl2) | MIDAS protein-metabolite interaction (enrichment/depletion) [4] | binding to FicD^L258D by DSF ([3]; absence of MgCl2) | MIDAS protein-metabolite interaction (enrichment/depletion) [5] | maximal Tm shift at saturating ligand concentration ([3]; FicD^L258D, 5 mM MgCl2) | EC50 ([3]; FicD^L258D, 5 mM MgCl2, read-out: EC50 of DSF dose-response (ΔTm)) [µM] | MIDAS protein-metabolite interaction (enrichment/depletion) [6] | Structure (SMILES)
1 | did not affect | did not | did not bind | – | – | – | – | – | – | CC(C)=CCC/C(C)=C/COP(=O)(O)O [GMP, geranyl-monophosphate]
2 | did not affect | did not | did not bind | – | – | – | – | – | – | CC(O)(CCOP(=O)(O)OP(=O)(O)O)CC(=O)O (centres unmarked) [MVAPP, mevalonate-pyrophosphate]
3 | did not affect | did not | did not bind | – | – | – | – | – | – | CC(C)=CCC/C(C)=C/CO [geraniol]
4 | – | – | – | significantly depleted | – | – | – | – | – | O=CC(=O)O [glyoxylic acid]
5 | did not affect | did not | did not bind | – | – | – | – | – | – | CC(C)=CCC/C(C)=C\CC/C(C)=C\COP(=O)(O)O [FMP, farnesyl-monophosphate]
6 | – | – | did not show saturation | – | did not bind | did not pass the significance cutoff | – | – | – | Nc1ncnc2c1ncn2[C@@H]1O[C@H](COP(=O)(O)OP(=O)(O)OP(=O)(O)O)[C@@H](O)[C@H]1O [ATP, adenosine triphosphate]
7 | – | – | binding | significantly enriched | did not bind | significantly enriched | ~ 7 °C | 530 | did not pass the significance cutoff | Nc1ncnc2c1ncn2[C@H]1C[C@H](O)[C@@H](COP(=O)(O)OP(=O)(O)OP(=O)(O)O)O1 [dATP]
8 | did not affect | did not | did not bind | – | – | – | – | – | – | CC(C)=CCC/C(C)=C/CC/C(C)=C/CO [farnesol]
9 | did not affect | did not | did not bind | – | – | – | – | – | – | CC(C)=CCOP(=O)(O)OP(=O)(O)O [DMAPP, dimethylallyl-pyrophosphate]
